The conditions of data set [1]: cited from earlier work.
For data set [2] the following is noted: cited from earlier work. The source holds these as a separate data set.
Data set [3] has as its system U46619-induced platelet aggregation. The settings on record: double blind, 10-day study, 20 healthy volunteers; plasma rich in platelets.
Method: It was a double blind, 10-day duration study that was performed in 20 healthy volunteers with an age ranging from 26 to 40 years old. The platelet activation was measured by changes in light transmission of plasma rich in platelets stimulated by a synthetic analogue of TXA2, U46619.
The subject of data set [4] is platelet aggregation. The following applies: cited from earlier work.
[5] abbreviates: radioactively marked Clopidogrel, within a five-day period.

`COC(=O)[C@H](c1ccccc1Cl)N1CCc2sccc2C1` [Clopidogrel]: the “reversibly bound to plasmatic proteins” value in data set [1] is given as 98%. Further, the “time to maximum plasmatic concentrations of primary metabolite” value in data set [2] (after a dose of 75 mg) is “one”. Moreover, the plasmatic half-life result in data set [2] (in vivo) is “about 8 hours”. The “inactive primary metabolite (carboxylic acid) as share of metabolites circulating in the plasma” value in data set [2] (oral) is reported as “about 85%”. Moreover, the absorption in data set [2] (oral, not significantly affected by food) is 50%. Besides, in data set [2] (setting [5]), the eliminated through feces is listed as 46% and the eliminated through urine result is given as “About 50%”. In addition, in data set [2] (two hours after an oral dose), the “plasmatic concentrations of the unaltered drug” value is “no longer detectable”. Besides, the “U46619 stimulated platelet aggregation” value in data set [3] is reported as “significantly inhibited”. The “time for platelet aggregation and bleeding-time to return to basal level” value in data set [4] (after the treatment discontinuation) was “five”. In data set [4] (in balanced conditions, 75 mg per day), the platelet aggregation inhibited is reported as 40-60%. Moreover, in data set [4] (in vitro, requires hepatic activation), the activity in vitro entry was “inactive in vitro”. The “time to maximum inhibition of platelet aggregation” value in data set [4] (iterative doses of 75 mg per day) is 3 to 7 days. In addition, the “inhibition of platelet aggregation” value in data set [4] (two hours after a single oral dose) is recorded as “already observed an inhibition of platelet aggregation”.

The record behind these values is patent EP1992346A1, “PHARMACEUTICAL COMPOSITIONS CONTAINING COMBINED PLATELET AGGREGATION INHIBITING SUBSTANCES FOR USE IN THE TREATMENT AND PREVENTION OF ISCHEMIC VASCULAR EVENTS” (WORLD-TRADE IMPORT-EXPORT, WTIE, A.G., priority 2005, dated 2007).
